Measurements reported in PubChem BioAssay (NCI).
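Dose response: 5 concentrations. Exposure: 48 h. Format: 96-well plates. Endpoint: linear interpolation; highest concentration if not reached. The concentration for full growth arrest is given as TGI.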

How the values were obtained:
Test in all cases: NCI-60 cell line screen, 48 h
[1] = tested on: HOP-92 NSCLC
[2] = tested on: HOP-62 NSCLC
[3] = tested on: DU-145 prostate
[4] = tested on: HCT-15 colon
[5] = tested on: HS 578T breast
[6] = tested on: MOLT-4 leukemia
[7] = tested on: NCI-H23 lung
[8] = tested on: TK-10 renal
[9] = tested on: RPMI-8226 leukemia
[10] = tested on: UACC-257 melanoma
[11] = tested on: T-47D breast
[12] = tested on: SK-OV-3 ovarian
[13] = tested on: OVCAR-4 ovarian
[14] = tested on: RXF 393 renal
[15] = tested on: SF-295 CNS
[16] = tested on: SW-620 colon
[17] = tested on: MDA-MB-231 breast
[18] = tested on: MALME-3M melanoma
[19] = tested on: SK-MEL-2 melanoma
[20] = tested on: MDA-N
[21] = tested on: MDA-MB-435
[22] = tested on: SF-268 CNS
[23] = tested on: NCI/ADR-RES ovarian
[24] = tested on: SNB-19 CNS
[25] = tested on: SK-MEL-5 melanoma
[26] = tested on: MCF7 breast
[27] = tested on: HT29 colon
[28] = tested on: EKVX NSCLC
[29] = tested on: LOX IMVI melanoma
[30] = tested on: ACHN renal
[31] = tested on: NCI-H522 lung
[32] = tested on: A549 NSCLC
[33] = tested on: OVCAR-8 ovarian
[34] = tested on: U251 CNS
[35] = tested on: SK-MEL-28 melanoma
[36] = tested on: KM12 colon
[37] = tested on: HL-60(TB) leukemia
[38] = tested on: SN12C renal
[39] = tested on: UACC-62 melanoma
[40] = tested on: A498 renal
[41] = tested on: UO-31 renal
[42] = tested on: SF-539 CNS
[43] = tested on: NCI-H226 lung
[44] = tested on: OVCAR-5 ovarian
[45] = tested on: OVCAR-3 ovarian
[46] = tested on: HCT-116 colon
[47] = tested on: NCI-H460 lung
[48] = tested on: M14 melanoma
[49] = tested on: BT-549 breast
[50] = tested on: CCRF-CEM leukemia
[51] = tested on: K-562 leukemia
[52] = tested on: IGROV1 ovarian
[53] = tested on: CAKI-1 renal
[54] = tested on: COLO 205 colon
[55] = tested on: PC-3 prostate
[56] = tested on: SNB-75 CNS
[57] = tested on: 786-0 renal

## Cc1c(N2C(=O)CS(=O)(=O)C2c2cccc(Oc3ccccc3)c2)c(=O)n(-c2ccccc2)n1C (stereo unspecified)
[1]
  TGI: > 100 µM
[2]
  TGI: > 100 µM
[3]
  TGI: > 100 µM
[4]
  TGI: > 100 µM
[5]
  TGI: > 100 µM
[6]
  TGI: > 100 µM
[7]
  TGI: > 100 µM
[8]
  TGI: 47.7 µM
[9]
  TGI: 74.4 µM
[10]
  TGI: > 100 µM
[11]
  TGI: > 100 µM
[12]
  TGI: > 100 µM
[13]
  TGI: 66.3 µM
[14]
  TGI: 79.3 µM
[15]
  TGI: > 100 µM
[16]
  TGI: > 100 µM
[17]
  TGI: > 100 µM
[18]
  TGI: 60 µM
[19]
  TGI: > 100 µM
[20]
  TGI: 62.6 µM
[21]
  TGI: > 100 µM
[22]
  TGI: > 100 µM
[23]
  TGI: > 100 µM
[24]
  TGI: > 100 µM
[25]
  TGI: > 100 µM
[26]
  TGI: > 100 µM
[27]
  TGI: > 100 µM
[28]
  TGI: > 100 µM
[29]
  TGI: > 100 µM
[30]
  TGI: > 100 µM
[31]
  TGI: > 100 µM
[32]
  TGI: > 100 µM
[33]
  TGI: > 100 µM
[34]
  TGI: > 100 µM
[35]
  TGI: > 100 µM
[36]
  TGI: > 100 µM
[37]
  TGI: 53.4 µM
[38]
  TGI: > 100 µM
[39]
  TGI: > 100 µM
[40]
  TGI: 55.9 µM
[41]
  TGI: > 100 µM
[42]
  TGI: > 100 µM
[43]
  TGI: > 100 µM
[44]
  TGI: > 100 µM
[45]
  TGI: > 100 µM
[46]
  TGI: > 100 µM
[47]
  TGI: > 100 µM
[48]
  TGI: > 100 µM
[49]
  TGI: > 100 µM
[50]
  TGI: > 100 µM
[51]
  TGI: > 100 µM
[52]
  TGI: > 100 µM
[53]
  TGI: > 100 µM
[54]
  TGI: 95.8 µM
[55]
  TGI: > 100 µM

## O=C(c1ccc(Cl)cc1)N(C(=O)N1CCC(c2ccccc2)CC1)c1ccccc1
[3]
  TGI: > 100 µM
[4]
  TGI: > 100 µM
[5]
  TGI: > 100 µM
[6]
  TGI: 57.1 µM
[7]
  TGI: > 100 µM
[8]
  TGI: > 100 µM
[9]
  TGI: 52.3 µM
[10]
  TGI: 83 µM
[11]
  TGI: 49.3 µM
[12]
  TGI: > 100 µM
[14]
  TGI: 62.5 µM
[56]
  TGI: 9.27 µM
[15]
  TGI: > 100 µM
[16]
  TGI: > 100 µM
[17]
  TGI: > 100 µM
[18]
  TGI: 84.6 µM
[19]
  TGI: > 100 µM
[20]
  TGI: > 100 µM
[21]
  TGI: > 100 µM
[22]
  TGI: > 100 µM
[23]
  TGI: > 100 µM
[24]
  TGI: > 100 µM
[25]
  TGI: 35.2 µM
[26]
  TGI: > 100 µM
[27]
  TGI: > 100 µM
[28]
  TGI: 69 µM
[29]
  TGI: > 100 µM
[30]
  TGI: > 100 µM
[57]
  TGI: > 100 µM
[33]
  TGI: > 100 µM
[34]
  TGI: > 100 µM
[35]
  TGI: > 100 µM
[36]
  TGI: 44.6 µM
[37]
  TGI: 61.5 µM
[38]
  TGI: > 100 µM
[39]
  TGI: > 100 µM
[40]
  TGI: 96.5 µM
[41]
  TGI: 98.7 µM
[42]
  TGI: > 100 µM
[43]
  TGI: 99.7 µM
[44]
  TGI: 57.3 µM
[45]
  TGI: > 100 µM
[46]
  TGI: > 100 µM
[48]
  TGI: 88.2 µM
[49]
  TGI: 73.6 µM
[50]
  TGI: 77.4 µM
[51]
  TGI: > 100 µM
[52]
  TGI: > 100 µM
[53]
  TGI: > 100 µM
[54]
  TGI: > 100 µM
[55]
  TGI: 73.8 µM
